Experimental data from patent US11793779B2, “Hica for use in prophylaxis and/or treatment of a disease or condition involving degradation of cartilage and/or disruption of cartilage homeostasis and/or integrity” (Salarusta Oy, priority 2020, dated 2023).

Assays:
[1] = target: T1, recombinant human ADAMTS-5 (Homo sapiens, UniProt Q9UNA0); experiment: ADAMTS-5 mediated break down of aggrecan (SDS-PAGE, silver stain); format: biochemical; details: 10% racemic HICA, pH 7.4, incubation 2 d, FIG. 1 line 5
T1 construct: purchased Chemicon International Inc. CC1034
T1 sequence (Q9UNA0 262-930): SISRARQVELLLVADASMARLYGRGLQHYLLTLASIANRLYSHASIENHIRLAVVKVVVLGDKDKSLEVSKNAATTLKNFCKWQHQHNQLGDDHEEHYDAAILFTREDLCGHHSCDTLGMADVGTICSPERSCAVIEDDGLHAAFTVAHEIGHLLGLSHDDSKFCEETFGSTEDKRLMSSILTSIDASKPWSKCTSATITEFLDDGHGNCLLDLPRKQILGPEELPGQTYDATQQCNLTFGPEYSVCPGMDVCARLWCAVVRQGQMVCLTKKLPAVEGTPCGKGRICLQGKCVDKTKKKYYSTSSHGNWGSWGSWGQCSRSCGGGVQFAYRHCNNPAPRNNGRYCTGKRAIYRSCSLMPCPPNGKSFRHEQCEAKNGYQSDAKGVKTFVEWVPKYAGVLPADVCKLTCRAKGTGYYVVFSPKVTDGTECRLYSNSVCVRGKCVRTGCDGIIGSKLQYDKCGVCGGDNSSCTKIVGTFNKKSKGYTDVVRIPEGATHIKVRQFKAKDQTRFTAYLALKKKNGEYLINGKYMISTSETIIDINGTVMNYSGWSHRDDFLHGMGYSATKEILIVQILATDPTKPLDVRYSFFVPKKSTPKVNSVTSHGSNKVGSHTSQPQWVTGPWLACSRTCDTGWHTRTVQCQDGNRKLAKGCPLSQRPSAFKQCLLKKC
Procedure: As positive inhibitor controls Ilomastat (Ilo, CC1010, Millipore) and chlorhexidine (CHX, Corsodyl®, [2 mg/ml] (GlaxoSmithKline, Brøndby, Denmark) were used and 50 mM Tris-HCl-buffer (TNC): pH 7.5; 0.2 M NaCl; 1.0 mM CaCl2) was used as neutral assay buffer.
MMP-13 was preincubated 1 hour at 37° C. with p-aminophenylmercuric acetate (APMA, A9563, Sigma-Aldrich) to optimally activate (pro)MMP-13. As substrate, Aggrecan was added and then ADAMTS-5 or activated MMP-13 as catalytic/proteolytic enzyme and TNC, as neutral control, and 10% HICA, CHX or Ilo as protease/MMP-inhibitors let incubated together from 1 hour (h) to 2 days (d). The enzyme reactions terminated by boiling with modified Laemmli buffer. The samples were analysed by 8% SDS-PAGE and after electrophoresis the defragmentation of Aggrecan was visualised using Silver Stain Pierce®.
Sample with concentrations in lines: • 1. 0.25 μl molecular weight standards. Bio-Rad • 2. 4.2 μl Aggrecan (0.5 μg/μl) • 3. 4 μl ADAMTS-5 (0.1 μg/μl) • 4. 4.2 μl Aggrecan+4 μl ADAMTS-5+6 μl TNC-buffer. inc: 2d • 5. 4.2 μl Aggrecan+4 μl ADAMTS-5+6 μl 10% HICA. inc: 2d • 6. 4.2 μl Aggrecan+4 μl ADAMTS-5+6 μl CHX (2 mg/ml). inc: 2d • 7. 1 μl MMP-13 (0.2 μg/μl)+3 μl 2 mM APMA+6 μl TNC • 8. 4.2 μl Aggrecan+1 μl MMP-13 (0.2 μg/μl)+3 μl 2 mM APMA+6 μl TNC. inc: 1h • 9. 4.2 μl Aggrecan+1 μl MMP-13 (0.2 μg/μl)+3 μl 2 mM APMA+6 μl TNC. inc: 2d • 10. […]

MMP-13 = MMP-13 (Homo sapiens, UniProt P45452); experiment: MMP-13 catalytic activity assay (modified pro-urokinase UKcol, chromogenic substrate S-2444, A405); format: biochemical; details: HICA 25 μg/ml, FIG. 2
Procedure: This example was carried out to test the inhibition of the catalytic activity of MMP-13. MMP-13 activity was measured as described previously (Hanemaaijer, Visser et al. 1998). In brief, MMP-13 was captured from biological fluids using MMP-13-specific monoclonal antibody-coated 96-well plates. The wells were washed three times with PBS-T (phosphate buffered saline solution containing 0.05% [v/v] Tween-20) and incubated with […] assay buffer (50 mM Tris-HCl, pH 7.6. 150 mM NaCl, 5 mM CaCl2, 1 μM ZnCl2 and 0.01% [v/v] Brij-35), to which 15 μl (50 μg/ml) modified pro-urokinase (UKcol) and 10 pl (6 mM stock) chromogenic substrate S-2444 was added. Color development was recorded by measurement of A405 using a Titertek Multiskan 8-channel photometer (Verheijen, Nieuwenbroek et al. 1997). For measurement of total activity (already active plus latent MMP-13) in biological fluid, the immobilized MMP-13 was incubated with assay buffer containing 0.5 mM APMA for 2 hr, after which UKcol and S-2444 were added and activity was recorded. (Hanemaaijer, Sier et al. 1999)
The protocol for this experiment: MMP-13 was activated with […] of APMA (p-aminophenylmercuric acetate, obtained from Sigma-Aldrich #A9563), after which MMP-13 was diluted and mixed with indicated inhibitors. Solution was let to incubate 30 minutes at 37° C. […]

CC(C)CC(O)C(=O)O (racemic) [HICA, 2-hydroxy-4-methylpentanoic acid]
inhibition of break down of Aggrecan by ADAMTS-5 [1]: inhibited the break down of Aggrecan
decreased activity of MMP-13 (MMP-13; MMP-13 concentration 1.5 ng/ml): 72%
decreased activity of MMP-13 (MMP-13; MMP-13 concentration 24 ng/ml): 73%
